From patent publication US12350308B2, “Phosphorylcholine conjugates and uses thereof” (TPCERA LTD., priority 2013, dated 2025)
*1 amine or outer side, *2 acyl side, *3 side chain or, on linkers, in order; H or OH if unused. Where a SMILES comes first, the peptide text is derived from it. [ ]: non-standard residue; d: D form. X1 = C[N+](C)(C)CCOP(=O)([O-])Oc1ccc(N=Nc2cc(C[C@H](N[*:1])C(=O)[*:2])ccc2O)cc1

Assays:
[1] = tested on: female NZBxW/F1 lupus prone mice; assay: Proteinuria onset and immune complex deposits in lupus prone mice treated with TD-PC; assay type: in vivo; conditions: s.c., prophylactic from week 14
Excerpt: To examine the potential protective effect of TD-PC (SEQ ID NO: 25 conjugated to PC), female NZBxW/F1 lupus prone mice received subcutaneous injections (s.c) of the TD-PC conjugate, phosphorylcholine (PC), tuftsin derivative (SEQ ID NO: 25) or PBS (control) via a prophylactic protocol starting at week 14, before the clinical onset of lupus (n ¼ 15 per group).

THP-1 cells = assay: Shift of M1 polarized macrophages to M2 macrophages secreting IL-10; assay type: cell-based, human; conditions: 5 μg/ml for 72 hrs; in comparison to OVA-PC
Method: The relative expression of the anti-inflammatory cytokine IL-10 was analyzed in human macrophages treated with TD-PC (TD-PC), and PC-Ovalbumin (OVA-PC). Specifically, THP-1 cells (a monocytic cell line established from human monocytic leukemia) were induced to differentiation into adherent macrophage-like phenotype (M0) by culturing the cells (10^5 cells/ml) in the presence of phorbol 12-myristate 13-acetate (PMA; 80 nM) and VD3 (100 nM). For inducing differentiation from M0 to M1 (M1 polarized macrophages) the cells were further incubated with LPS (1 μg/ml), IFNγ (20 ng/ml). For shifting from M1 to M2 macrophages (M2 polarized macrophages) the cells were washed and further incubated with IL-4 (10 ng/ml) and IL-13 (10 ng/ml) for 72 hours.
In order to determine whether TD-PC, TD, PC or PC-OVA can induce a shift form M1 cells to M2 macrophages secreting anti-inflammatory cytokine IL-10, M1 polarized macrophages were incubated with each molecule or conjugate at 5 μg/ml for 72 hrs.

male C57BL/6 mice = assay: DSS induced acute colitis in mice; assay type: in vivo
Method: The effect of PC-tuftsin derivative (SEQ ID NO: 25) on colitis development was determined in a mouse model subjected to induction of acute colitis by dextran sulfate sodium (DSS) treatment. Specifically, induction of colitis was carried out in male C57BL/6 mice (“colitis mice”) by supplementing the drinking water (2.5% wt/v) for five days with DSS (mol. wt. 36,000-50,000).
Two groups of mice were fed daily via oral ingestion using a feeding-needle, with PC-tuftsin derivative at a concentration of 500 μg/0.1 ml per mouse (treatment; n=10), or PBS (control; n=10). These compounds were given during 11 days starting two days before DSS administration.
Assessment of colitis development was performed by monitoring body weight, rectal bleeding, stool consistency, and survival every second day. Intestinal bleeding was followed by Hemoccult test and observation of bleeding signs on the anus or gross bleeding. The daily disease activity index (DAI) was calculated by grading on a scale of zero to four the following parameters: change in weight (0, <1%; 1, 1-5%; 2, 5-10%; 3, 10— 15%; and 4, >15%), intestinal bleeding (0, negative; 4, positive), and stool consistency (0, normal; 2, loose stools; 4, diarrhea). The combined scores were then divided by three to obtain the final disease activity index. Ten days following disease induction, mice were sacrificed and the large intestine was collected and evaluated for colon length and microscopic colonic damage. For microscopic scoring, the proximal, medial, and distal portions of the colon and the cecum were fixed in 10% phosphate-buffered formalin. Paraffin-embedded sections were stained with H&E. The degree of histological damage and inflammation was graded in a blinded fashion by an expert pathologist

colon lysates = assay: Cytokine expression in colon lysates of colitis mice (immunoblot); assay type: in vivo
Method: The expression of the proinflammatory cytokines (TNFα, IL-17, IL-113) and anti-inflammatory cytokine IL-10 was analyzed by immunoblot in colon lysates.

CIA mice = assay: Anti-collagen type II antibodies in sera of CIA mice; assay type: in vivo; conditions: day 30, sera dilution 1:200
Method: Titers of anti-collagen type II antibodies in mice sera at a dilution of 1:200 (OD at 405 nm) were measured at day 30 after disease induction while arthritis was fully manifested (FIG. 27). […] The mean OD level of the anti-collagen type II antibodies in the mice treated with TD-PC per os was 0.685±0.09 while the corresponding mean OD level in control mice treated with PBS per os was 1.09±0.17. Furthermore, the mean OD level of the anti-collagen type II antibodies in mice treated with TD-PC s.c was 0.615±0.08, whereas the corresponding mean OD level mice treated with PBS s.c was 1.03±0.13 (p<0.001).

[2] = tested on: splenocytes of NZBW/F1 female mice; assay: Cytokine mRNA in splenocytes of lupus mice treated with TD-PC (RT-PCR); assay type: in vivo; conditions: week 30; vs PBS
Method: NZBW/F1 female mice having lupus were treated with TD-PC (SEQ ID NO: 25 conjugated to PC) or the corresponding control treatments. Mice were sacrificed at week 30, and their splenocytes were studied in-vitro for the expression of pro-inflammatory cytokines (IFNγ, IL-17) and anti-inflammatory (TGFβ, IL-10) cytokines using RT-PCR. […] In contrast, TD-PC increased the mRNA expression of the anti-inflammatory cytokine TGFβ in the (p<0.001) compared to the mRNA expressed by splenocytes derived from PBS-treated mice (FIG. 24A).

[3] = tested on: IL-10+CD25+CD1d+ Breg cells; assay: Breg expansion in splenocytes of mice with established CIA (FACS); assay type: in vivo; conditions: isolated splenocytes; PBS 0.4%
Method: The mean percentage of Breg cells in isolated splenocytes following treatment with TD-PC, PBS, TD (SEQ ID NO: 25), PC, TD+PC and None was measured within IL-10+CD25+CD1d+ subset. […] Representative data of IL-10+CD25+CD1d+ levels in splenocytes derived from TD-PC, PBS, TD (SEQ ID NO: 25), PC and TD+PC treated mice gating on IL-10+ B cells, are presented in FIG. 34A.

NZBxW/F1 lupus mice = assay: Circulating anti-dsDNA antibodies in lupus mice treated with TD-PC (ELISA); assay type: in vivo; conditions: sera at 30 weeks, dilution 1:800; between groups incl. PBS
Method: Titers of circulating anti-dsDNA antibodies in the sera of control and treated mice were monitored during the development of lupus, and their levels were measured every 3 weeks. […] FIG. 23 presents the anti dsDNA antibodies titers in the sera at the age 30 weeks at a dilution of 1:800.

[4] = 500 μg/0.1 ml oral daily, vs PBS

`C[C@@H](O)[C@H](N)C(=O)N[C@@H](CCCCN)C(=O)N1CCC[C@H]1C(=O)N[C@@H](CCCNC(=N)N)C(=O)NCC(=O)N[C@@H](Cc1ccc(O)c(N=Nc2ccc(OP(=O)([O-])OCC[N+](C)(C)C)cc2)c1)C(=O)O` [TD-PC, Thr-Lys-Pro-Arg-Gly-Tyr-PC] (H-TKPRG[X1]-OH) was tested, and the “immune complex (IC) deposits in the mesangium / nephritis class” value [1] was “class-II nephritis”, the “mice with proteinuria above 100 mg/dl” value ([1]; age of 30 weeks, PBS 72%) was 21% and the “shift of M1 macrophages to M2 macrophages secreting IL-10” value (THP-1 cells) was “significant shift”. For the same molecule, the “daily disease activity index (DAI) score” value (male C57BL/6 mice; 500 μg/0.1 ml oral daily, day 8, PBS 2.6 after 5 days) was “around 0.9”, the loss of weight (male C57BL/6 mice; [4]) was “significantly low” and the rectal bleeding (male C57BL/6 mice; [4]) was “significantly low”. The survival (male C57BL/6 mice; [4]) was “significantly higher survival”, the colon length (male C57BL/6 mice; PBS mice five-six cm) was “eight” and the “histological analysis of colon sections (H&E)” value (male C57BL/6 mice; vs PBS) was “attenuated colon destruction”. The “IL-1β expression in colon lysates” value (colon lysates) was “suppressed”, the “IL-10 expression in colon lysates” value (colon lysates) was “Significant increased” and the “IL-17 expression in colon lysates” value (colon lysates) was “suppressed”. For the same molecule, the “TNFα expression in colon lysates” value (colon lysates) was “suppressed”, the “mean OD level of anti-collagen type II antibodies” value (CIA mice; per os, PBS 1.09±0.17) was 0.685±0.09 OD at 405 nm and the “mean OD level of anti-collagen type II antibodies” value (CIA mice; s.c, PBS 1.03±0.13) was 0.615±0.08 OD at 405 nm. For the same molecule, the “mRNA expression of IFNγ in splenocytes” value [2] was “inhibited”, the “mRNA expression of TGFβ in splenocytes” value [2] was “increased” and the “mean percentage of IL-10+CD25+CD1d+ Breg cells” value [3] was 13.73%. For the same molecule, the “titers of circulating anti-dsDNA antibodies” value (NZBxW/F1 lupus mice) was “No statistically significant change”.
